Source: US9233977B2, “Leucine-rich repeat kinase enzyme activity” (Merck Sharp & Dohme Corp., priority 2010, dated 2016)

target: T1, LRRK2 G2019S mutant kinase (Homo sapiens, UniProt Q5S007, G2019S); test: LRRK2 G2019S LanthaScreen TR-FRET kinase assay; format: biochemical; conditions: LRRK2 G2019S GST-tagged protein, 75 nM Fluorescein-ERM (LRRKtide), 100 μM ATP, 1 hour at room temperature; read-out: IC50 (potency)
T1 construct: GST; purchased Invitrogen PV4882
Procedure: The final solvent concentration in the assay was 1% DMSO. […] Generation of raw data and workup of data to derive the IC50 (potency) and maximal inhibition at concentrations tested were performed using Merck's Assay Data Analyzer (ADA) software.
The IC50 (potency) was evaluated for the example compounds presented above.

T1 sequence (Q5S007 whole entry G2019S): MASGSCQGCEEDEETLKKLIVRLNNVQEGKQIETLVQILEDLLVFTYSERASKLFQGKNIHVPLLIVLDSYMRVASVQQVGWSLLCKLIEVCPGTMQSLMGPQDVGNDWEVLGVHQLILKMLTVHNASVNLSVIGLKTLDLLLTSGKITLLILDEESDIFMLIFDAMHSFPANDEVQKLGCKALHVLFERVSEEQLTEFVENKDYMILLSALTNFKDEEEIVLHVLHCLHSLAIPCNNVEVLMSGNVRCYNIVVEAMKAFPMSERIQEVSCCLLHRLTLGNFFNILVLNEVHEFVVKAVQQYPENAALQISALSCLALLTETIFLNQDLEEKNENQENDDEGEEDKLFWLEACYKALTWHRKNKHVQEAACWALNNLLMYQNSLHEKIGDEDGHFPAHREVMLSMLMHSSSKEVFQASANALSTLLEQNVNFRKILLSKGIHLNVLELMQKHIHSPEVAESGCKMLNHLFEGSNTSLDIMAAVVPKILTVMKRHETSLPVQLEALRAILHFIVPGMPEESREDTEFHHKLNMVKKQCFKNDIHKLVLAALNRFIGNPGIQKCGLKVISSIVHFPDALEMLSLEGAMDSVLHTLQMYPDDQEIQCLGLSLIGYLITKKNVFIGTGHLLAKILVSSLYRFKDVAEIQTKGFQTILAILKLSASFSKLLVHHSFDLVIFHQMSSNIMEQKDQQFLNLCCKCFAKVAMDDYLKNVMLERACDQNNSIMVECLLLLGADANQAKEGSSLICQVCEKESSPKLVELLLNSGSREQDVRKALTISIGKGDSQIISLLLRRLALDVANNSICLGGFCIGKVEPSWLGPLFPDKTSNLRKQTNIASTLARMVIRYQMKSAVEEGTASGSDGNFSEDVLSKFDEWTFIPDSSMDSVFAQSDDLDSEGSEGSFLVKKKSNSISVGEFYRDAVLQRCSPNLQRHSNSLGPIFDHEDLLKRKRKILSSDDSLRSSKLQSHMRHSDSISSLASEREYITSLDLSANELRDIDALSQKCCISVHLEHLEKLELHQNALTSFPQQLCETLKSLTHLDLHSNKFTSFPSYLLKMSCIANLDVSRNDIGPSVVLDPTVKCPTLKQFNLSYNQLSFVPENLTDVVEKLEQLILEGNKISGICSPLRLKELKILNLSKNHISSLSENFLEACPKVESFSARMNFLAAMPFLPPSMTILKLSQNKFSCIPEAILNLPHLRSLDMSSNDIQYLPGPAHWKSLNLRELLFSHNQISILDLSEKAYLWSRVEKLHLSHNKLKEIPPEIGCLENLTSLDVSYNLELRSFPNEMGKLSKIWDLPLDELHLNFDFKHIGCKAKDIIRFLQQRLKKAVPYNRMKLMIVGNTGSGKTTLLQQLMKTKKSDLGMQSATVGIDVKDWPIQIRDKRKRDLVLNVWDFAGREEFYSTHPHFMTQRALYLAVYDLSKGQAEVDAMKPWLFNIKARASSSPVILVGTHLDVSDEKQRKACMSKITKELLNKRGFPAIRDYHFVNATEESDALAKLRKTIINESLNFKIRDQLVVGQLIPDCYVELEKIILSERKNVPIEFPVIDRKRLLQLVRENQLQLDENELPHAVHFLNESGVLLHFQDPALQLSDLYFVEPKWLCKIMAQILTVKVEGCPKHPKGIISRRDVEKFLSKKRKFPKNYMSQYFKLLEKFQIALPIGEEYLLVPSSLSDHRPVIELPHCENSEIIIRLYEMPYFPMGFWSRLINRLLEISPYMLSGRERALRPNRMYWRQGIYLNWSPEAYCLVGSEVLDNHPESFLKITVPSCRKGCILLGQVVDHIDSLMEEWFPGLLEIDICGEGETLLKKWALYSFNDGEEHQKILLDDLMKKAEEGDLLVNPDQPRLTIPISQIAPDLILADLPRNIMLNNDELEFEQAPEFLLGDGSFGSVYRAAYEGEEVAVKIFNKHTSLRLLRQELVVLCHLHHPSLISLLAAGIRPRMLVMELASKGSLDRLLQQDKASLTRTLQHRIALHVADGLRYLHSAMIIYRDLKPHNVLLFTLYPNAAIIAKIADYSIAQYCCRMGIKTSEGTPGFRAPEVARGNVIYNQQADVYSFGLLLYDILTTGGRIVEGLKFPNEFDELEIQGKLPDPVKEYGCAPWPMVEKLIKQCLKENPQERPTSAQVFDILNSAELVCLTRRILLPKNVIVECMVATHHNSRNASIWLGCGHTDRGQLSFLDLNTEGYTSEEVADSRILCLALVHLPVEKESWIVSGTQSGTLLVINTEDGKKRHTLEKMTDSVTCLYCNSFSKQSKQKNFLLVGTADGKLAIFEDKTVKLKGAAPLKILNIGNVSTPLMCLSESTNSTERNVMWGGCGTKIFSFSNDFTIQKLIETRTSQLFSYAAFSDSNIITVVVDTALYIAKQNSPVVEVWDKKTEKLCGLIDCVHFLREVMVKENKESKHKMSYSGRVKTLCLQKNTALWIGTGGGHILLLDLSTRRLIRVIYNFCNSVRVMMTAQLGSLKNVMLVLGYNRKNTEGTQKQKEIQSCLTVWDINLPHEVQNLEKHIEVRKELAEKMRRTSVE

Row | Compound | IC50
1 | CSc1sc(-c2cc[nH]n2)c2c1C(=O)N(CC1CCOCC1)CC2 [Example 66, 5-[(4-tetrahydropyranyl)methyl]-3-(methylsulfanyl)-1-(1H-pyrazol-3-yl)-6,7-dihydrothieno[3,4-c]pyridin-4(5)-one] | 3700 nM
2 | CSc1sc(-c2cc[nH]n2)c2c1C(=O)N(CCN1CCOCC1)CC2 [Example 67, 3-(methylsulfanyl)-5-[2-(morpholin-4-yl)ethyl]-1-(1H-pyrazol-3-yl)-6,7-dihydrothieno[3,4-c]pyridin-4(5)-one] | 9200 nM
3 | CSc1sc(-c2cc[nH]n2)c2c1C(=O)N(CCCCOc1ccccc1)CC2 [Example 68, 3-(methylsulfanyl)-5-(4-phenoxybutyl)-1-(1H-pyrazol-3-yl)-6,7-dihydrothieno[3,4-c]pyridin-4(5)-one] | 3200 nM
4 | CSc1sc(-c2cc[nH]n2)c2c1C(=O)N(CCC=C(F)F)CC2 [Example 69, 5-(4,4-difluorobut-3-en-1-yl)-3-(methylsulfanyl)-1-(1H-pyrazol-3-yl)-6,7-dihydrothieno[3,4-c]pyridin-4(5)-one] | 760 nM
5 | CSc1sc(-c2cc[nH]n2)c2c1C(=O)N(CCCCC#N)CC2 [Example 70, 5-[3-(methylsulfanyl)-4-oxo-1-(1H-pyrazol-3-yl)-6,7-dihydrothieno[3,4H)-yl]pentanenitrile] | 2500 nM
6 | CSc1sc(-c2cc[nH]n2)c2c1C(=O)N(CCC1CCCCC1)CC2 [Example 71, 3-(methylsulfanyl)-5-[(2-cyclohexyl)ethyl]-1-(1H-pyrazol-3-yl)-6,7-dihydrothieno[3,4-c]pyridin-4(5)-one] | 7500 nM
7 | CSc1sc(-c2cc[nH]n2)c2c1C(=O)N(Cc1ccncc1)CC2 [Example 72, 5-[(4-pyridyl)methyl]-3-(methylsulfanyl)-1-(1H-pyrazol-3-yl)-6,7-dihydrothieno[3,4-c]pyridin-4(5)-one] | 7900 nM
8 | CSc1sc(-c2cc[nH]n2)c2c1C(=O)N(CCC1CCCNC1)CC2 (stereo not drawn) [Example 73, 3-(methylsulfanyl)-5-[2-(3-piperidinyl)ethyl]-1-(1H-pyrazol-3-yl)-6,7-dihydrothieno[3,4-c]pyridin-4(5)-one] | 5900 nM
9 | CSc1sc(-c2cc[nH]n2)c2c1C(=O)N(CCCCCc1ccccc1)CC2 [Example 74, 5-[(5-phenyl)pentyl]-3-(methylsulfanyl)-1-(1H-pyrazol-3-yl)-6,7-dihydrothieno[3,4-c]pyridin-4(5)-one] | 7500 nM
10 | CSc1sc(-c2cc[nH]n2)c2c1C(=O)N(C)CC2 [Example 75, 5-methyl-3-(methylsulfanyl)-1-(1H-pyrazol-3-yl)-6,7-dihydrothieno[3,4-c]pyridin-4(5)-one] | 3300 nM
11 | CCN1CCc2c(-c3cc[nH]n3)sc(SC)c2C1=O [Example 76, 5-ethyl-3-(methylsulfanyl)-1-(1H-pyrazol-3-yl)-6,7-dihydrothieno[3,4-c]pyridin-4(5)-one] | 2200 nM
12 | CSc1sc(-c2cc[nH]n2)c2c1C(=O)N(Cc1ccccc1)CC2 [Example 77, 5-benzyl-3-(methylsulfanyl)-1-(1H-pyrazol-3-yl)-6,7-dihydrothieno[3,4-c]pyridin-4(5)-one] | 1300 nM
13 | CSc1sc(-c2cc[nH]n2)c2c1C(=O)N(CCc1ccccn1)CC2 [Example 78, 3-(methylsulfanyl)-5-[2-(2-pyridyl)ethyl]-1-(1H-pyrazol-3-yl)-6,7-dihydrothieno[3,4-c]pyridin-4(5)-one] | 5700 nM
14 | CSc1sc(-c2cc[nH]n2)c2c1C(=O)N(CCCc1ccccc1)CC2 [Example 79] | 3500 nM
15 | CSc1sc(-c2cc[nH]n2)c2c1C(=O)N(CCN1CCCCC1)CC2 [Example 80, 3-(methylsulfanyl)-5-[2-(piperidin-1-yl)ethyl]-1-(1H-pyrazol-3-yl)-6,7-dihydrothieno[3,4-c]pyridin-4(5)-one] | 7800 nM
16 | CSc1sc(-c2cc[nH]n2)c2c1C(=O)N(c1ccccc1)CC2 [Example 81, 3-(Methylsulfanyl)-5-phenyl-1-(1H-pyrazol-3-yl)-6,7-dihydrothieno[3,4-c]pyridin-4(5H)-one] | 2000 nM
17 | CSc1sc(-c2cc[nH]n2)c2c1C(=O)N(c1cccc(F)c1)CC2 [Example 82, 5-(3-fluorophenyl)-3-(methylsulfanyl)-1-(1H-pyrazol-3-yl)-6,7-dihydrothieno[3,4-c]pyridin-4(5)-one] | 4000 nM
18 | CSc1sc(-c2cc[nH]n2)c2c1C(=O)N(c1ccc(C)cc1)CC2 [Example 83] | 3300 nM
19 | COc1cccc(N2CCc3c(-c4cc[nH]n4)sc(SC)c3C2=O)c1 [Example 84, 5-(3-methoxyphenyl)-3-(methylsulfanyl)-1-(1H-pyrazol-3-yl)-6,7-dihydrothieno[3,4-c]pyridin-4(5)-one] | 4700 nM
20 | CSc1sc(-c2cc[nH]n2)c2c1C(=O)N(c1ccccc1F)CC2 [Example 85, 5-(2-fluorophenyl)-3-(methylsulfanyl)-1-(1H-pyrazol-3-yl)-6,7-dihydrothieno[3,4-c]pyridin-4(5)-one] | 3100 nM
21 | CC1CNC(=O)c2c(NC3CCCC3)sc(-c3cc[nH]n3)c21 (stereo not drawn) [Example 86, 3-(cyclopentylamino)-7-methyl-1-(1H-pyrazol-3-yl)-6,7-dihydrothieno[3,4-e]pyridin-4(5H)-one] | 120 nM
22 | CC1Cc2c(-c3cc[nH]n3)sc(NC3CCCC3)c2C(=O)N1 (stereo not drawn) [Example 87, 3-(cyclopentylamino)-6-methyl-1-(1H-pyrazol-3-yl)-6,7-dihydrothieno[3,4-c]pyridin-4(5H)-one] | 320 nM
23 | O=C1NC2(CCC2)Cc2c(-c3cc[nH]n3)sc(NC3CCCC3)c21 [Example 88, 3′-(cyclopentylamino)-4′-oxo-1′-(1H-pyrazol-3-yl)-7′H-spiro[cyclobutane-1,6′-thieno[3,4-1]pyridine]-4′(5′H)-one] | 120 nM
24 | CC(C)CC1Cc2c(-c3cc[nH]n3)sc(NC3CCCC3)c2C(=O)N1 (stereo not drawn) [Example 89, 3-(cyclopentylamino)-6-(2-methyl)propyl-1-(1H-pyrazol-3-yl)-6,7-dihydrothieno[3,4-c]pyridin-4(5H)-one] | 190 nM
25 | O=C1NCCc2c(-c3cc[nH]n3)sc(NC3CCCC3)c21 [Example 90, 3-(cyclopentylamino)-(1H-pyrazol-3-yl)-6,7-dihydrothieno[3,4-c]pyridin-4(5H)-one] | 360 nM
26 | CNc1sc(-c2cc[nH]n2)c2c1C(=O)NCC2 [Example 91, 3-(methylamino)-(1H-pyrazol-3-yl)-6,7-dihydrothieno[3,4-c]pyridin-4(5H)-one] | 1400 nM
27 | O=C1NC(Cc2ccccc2)Cc2c(-c3cc[nH]n3)sc(NC3CCCC3)c21 (stereo not drawn) [Example 92, 3-(cyclopentylamino)-6-benzyl-1-(1H-pyrazol-3-yl)-6,7-dihydrothieno[3,4-c]pyridin-4(5H)-one] | 290 nM
28 | CNc1sc(-c2cc[nH]n2)c2c1C(=O)NC(Cc1ccccc1)C2 (stereo not drawn) [Example 93, 3-(methylamino)-6-benzyl-1-(1H-pyrazol-3-yl)-6,7-dihydrothieno[3,4-c]pyridin-4(5H)-one] | 330 nM
29 | CNc1sc(-c2cc[nH]n2)c2c1C(=O)NC1(CCC1)C2 [Example 94, 3′-(methylamino)-4′-oxo-1′-(1H-pyrazol-3-yl)-7′H-spiro[cyclobutane-1,6′-thieno[3,4-1]pyridine]-4′(5′H)-one] | 550 nM
30 | CNc1sc(-c2cc[nH]n2)c2c1C(=O)NC(CC(C)C)C2 (stereo not drawn) [Example 95, 3-(methylamino)-6-(2-methyl)propyl-1-(1H-pyrazol-3-yl)-6,7-dihydrothieno[3,4-c]pyridin-4(5H)-one] | 470 nM
